# In US20250388574A1, “HETEROCYCLIC COMPOUNDS AS TRIGGERING RECEPTOR EXPRESSED ON MYELOID CELLS 2 AGONISTS AND METHODS OF USE” (AMGEN INC., priority 2020, published 2025):
# Biological target: hTREM2 (Homo sapiens, UniProt Q9NZC2)
# Experiment: Phospho-Syk AlphaScreen/AlphaLISA assay in TREM2 and DAP12 overexpressing HEK293 cells (Example A1)
# Assay type: cell-based
# Design: expressed in transfected cells
# Conditions: HEK293 cells; for EC50: read-out: hTREM2 EC50
# Method in brief: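 Single-cell-cloned HEK293 stably overexpressing TREM2 and DAP12, plated 20,000 cells/well for 20 h, then exposed to compounds (1% DMSO) 45 min at room temperature. Lysates probed for phospho-Syk by AlphaLISA sandwich (anti-pSyk, biotinylated anti-Syk); signal normalized to percent of control (100 nM anti-TREM2 antibody vs isotype) and fitted by 4-parameter logistic.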
# hTREM2, sequence (Q9NZC2 19-230): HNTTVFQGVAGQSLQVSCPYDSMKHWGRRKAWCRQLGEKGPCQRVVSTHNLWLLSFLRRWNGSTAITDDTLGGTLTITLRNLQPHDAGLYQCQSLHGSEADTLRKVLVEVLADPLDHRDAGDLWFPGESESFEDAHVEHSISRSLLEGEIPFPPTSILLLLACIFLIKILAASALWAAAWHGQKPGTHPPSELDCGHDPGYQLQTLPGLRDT
# hTREM2, sequence (O43914 22-113 partner): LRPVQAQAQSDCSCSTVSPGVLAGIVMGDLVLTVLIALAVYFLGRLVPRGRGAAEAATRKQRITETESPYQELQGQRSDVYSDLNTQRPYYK
SMILES,Emax,EC50 [nM]
"CCCn1c(C)nc2cc(N3CCO[C@@H](c4ccnn4C)C3)nc(-c3ccc(Cl)cc3F)c2c1=O [Example 155, 5-(4-chloro-2-fluorophenyl)-2-methyl-7-((2R)-2-(1-methyl-1H-pyrazol-5-yl)-4-morpholinyl)-3-propylpyrido[4,3-d]pyrimidin-4(3H)-one]",++++ (Emax>300),50 to 500
"CCCn1c(C)nc2cc(N3CCO[C@@H](c4ccccc4)C3)nc(-c3ccc(Cl)cc3F)c2c1=O [Example 157, 5-(4-chloro-2-fluorophenyl)-2-methyl-7-((2S)-2-phenyl-4-morpholinyl)-3-propylpyrido[4,3-d]pyrimidin-4(3H)-one]",++++ (Emax>300),500 to 3000
"Cn1cc([C@H]2CN(c3cc4ncn(C)c(=O)c4c(-c4ccc(Cl)cc4F)n3)CCO2)cn1 [Example 158, 5-(4-chloro-2-fluorophenyl)-3-methyl-7-((2S)-2-(1-methyl-1H-pyrazol-4-yl)-4-morpholinyl)pyrido[4,3-d]pyrimidin-4(3H)-one]",+++ (Emax>200 and ≤300),500 to 3000
"Cc1nc2cc(N3CCO[C@@H](c4cnn(C)c4)C3)nc(C3CCCCC3)c2c(=O)n1C [Example 159, 5-cyclohexyl-2,3-dimethyl-7-((2S)-2-(1-methyl-1H-pyrazol-4-yl)-4-morpholinyl)pyrido[4,3-d]pyrimidin-4(3H)-one]",+++ (Emax>200 and ≤300),500 to 3000
"Cc1nc2cc(N3CCO[C@@H](c4cnn(C)c4)C3)nc(C3CCCC3)c2c(=O)n1C [Example 160, 5-cyclopentyl-2,3-dimethyl-7-((2S)-2-(1-methyl-1H-pyrazol-4-yl)-4-morpholinyl)pyrido[4,3-d]pyrimidin-4(3H)-one]",+++ (Emax>200 and ≤300),500 to 3000
"Cc1ccc(C2CC(c3cc4nc(C)n(C)c(=O)c4c(-c4ccc(Cl)cc4F)n3)CCO2)cn1 (centres unmarked) [Example 171, 5-(4-chloro-2-fluorophenyl)-2,3-dimethyl-7-(2-(6-methylpyridin-3-yl)tetrahydro-2H-pyran-4-yl)pyrido[4,3-d]pyrimidin-4(3H)-one]",+++ (Emax>200 and ≤300),50 to 500
"CCCn1c(C)nc2cc(N3Cc4cnn(C)c4C3)nc(-c3ccc(Cl)cc3F)c2c1=O [Example 181, 5-(4-chloro-2-fluorophenyl)-2-methyl-7-(1-methyl-4,6-dihydropyrrolo[3,4-c]pyrazol-5(1H)-yl)-3-propylpyrido[4,3-d]pyrimidin-4(3H)-one]",++++ (Emax>300),3000 to 100000
"CCCn1c(C)nc2cc(N3CCn4ccnc4C3)nc(-c3ccc(Cl)cc3F)c2c1=O [Example 182, 5-(4-chloro-2-fluorophenyl)-7-(5,6-dihydroimidazo[1,2-a]pyrazin-7(8H)-yl)-2-methyl-3-propylpyrido[4,3-d]pyrimidin-4(3H)-one]",+++ (Emax>200 and ≤300),3000 to 100000
"CCCn1c(C)nc2cc(N3CCO[C@H](c4ccnn4C)C3)nc(-c3ccc(Cl)cc3F)c2c1=O [Example 184, (S)-5-(4-chloro-2-fluorophenyl)-2-methyl-7-(2-(1-methyl-1H-pyrazol-5-yl)morpholino)-3-propylpyrido[4,3-d]pyrimidin-4(3H)-one]",++++ (Emax>300),50 to 500
"CCCn1c(C)nc2cc(N3CCO[C@H](c4ccccc4)C3)nc(-c3ccc(Cl)cc3F)c2c1=O [Example 186, (R)-5-(4-chloro-2-fluorophenyl)-2-methyl-7-(2-phenylmorpholino)-3-propylpyrido[4,3-d]pyrimidin-4(3H)-one]",++++ (Emax>300),500 to 3000
"CCCn1c(C)nc2cc(N3CCO[C@H](c4ccccc4)C3)nc(-c3ccc(Cl)cc3F)c2c1=O [Example 190, (R)-5-(4-chloro-2-fluorophenyl)-2-methyl-7-(2-phenylmorpholino)-3-propylpyrido[4,3-d]pyrimidin-4(3H)-one]",+++ (Emax>200 and ≤300),500 to 3000
"CCCn1c(C)nc2cc(N3CCO[C@H](c4cnn(C)c4)C3)nc(-c3ncc(Cl)cc3C)c2c1=O [Example 195, (R)-5-(5-chloro-3-methylpyridin-2-yl)-2-methyl-7-(2-(1-methyl-1H-pyrazol-4-yl)morpholino)-3-propylpyrido[4,3-d]pyrimidin-4(3H)-one]",+ (Emax>45 and ≤100),3000 to 100000
"Cc1nc2cc(N3CCO[C@H](c4cnn(C)c4)C3)nc(-c3ncc(Cl)cc3F)c2c(=O)n1C [Example 196, (R)-5-(5-chloro-3-fluoropyridin-2-yl)-2,3-dimethyl-7-(2-(1-methyl-1H-pyrazol-4-yl)morpholino)pyrido[4,3-d]pyrimidin-4(3H)-one]",++++ (Emax>300),500 to 3000

# Second part, the compound after the results:
Emax,EC50 [nM],SMILES
++++ (Emax>300),500 to 3000,"CCCn1c(C)nc2cc(N3CCO[C@@H](C(F)F)C3)nc(-c3ccc(Cl)cc3F)c2c1=O [Example 156, 5-(4-chloro-2-fluorophenyl)-7-((2R)-2-(difluoromethyl)-4-morpholinyl)-2-methyl-3-propylpyrido[4,3-d]pyrimidin-4(3H)-one]"
++++ (Emax>300),500 to 3000,"CCCn1c(C)nc2cc(N3CCO[C@@H](C(F)(F)F)C3)nc(-c3ccc(Cl)cc3F)c2c1=O [Example 179, (R)-5-(4-chloro-2-fluorophenyl)-2-methyl-3-propyl-7-(2-(trifluoromethyl)morpholino)pyrido[4,3-d]pyrimidin-4(3H)-one]"
++++ (Emax>300),500 to 3000,"CCCn1c(C)nc2cc(N3CCO[C@H](C(F)(F)F)C3)nc(-c3ccc(Cl)cc3F)c2c1=O [Example 180, (S)-5-(4-chloro-2-fluorophenyl)-2-methyl-3-propyl-7-(2-(trifluoromethyl)morpholino)pyrido[4,3-d]pyrimidin-4(3H)-one]"
+++ (Emax>200 and ≤300),500 to 3000,"CCCn1c(C)nc2cc(N3CCO[C@H](C(F)F)C3)nc(-c3ccc(Cl)cc3F)c2c1=O [Example 183, (S)-5-(4-chloro-2-fluorophenyl)-7-(2-(difluoromethyl)morpholino)-2-methyl-3-propylpyrido[4,3-d]pyrimidin-4(3H)-one]"
+++ (Emax>200 and ≤300),500 to 3000,"CCCn1c(C)nc2cc(N3CCOC(CF)C3)nc(-c3ccc(Cl)cc3F)c2c1=O (centres unmarked) [Example 185, 5-(4-chloro-2-fluorophenyl)-7-(2-(fluoromethyl)morpholino)-2-methyl-3-propylpyrido[4,3-d]pyrimidin-4(3H)-one]"
++++ (Emax>300),500 to 3000,"CCCn1c(C)nc2cc(N3CCO[C@H](CC)C3)nc(-c3ccc(Cl)cc3F)c2c1=O [Example 187, (R)-5-(4-chloro-2-fluorophenyl)-7-(2-ethylmorpholino)-2-methyl-3-propylpyrido[4,3-d]pyrimidin-4(3H)-one]"
++++ (Emax>300),500 to 3000,"Cc1nc2cc(N3CCO[C@@H](C4CC4)C3)nc(-c3ccc(Cl)cc3F)c2c(=O)n1C [Example 188, (S)-5-(4-chloro-2-fluorophenyl)-7-(2-cyclopropylmorpholino)-2,3-dimethylpyrido[4,3-d]pyrimidin-4(3H)-one]"
++++ (Emax>300),50 to 500,"Cc1nc2cc(N3CCO[C@H](c4cnn(C)c4)C3)nc(-c3ccc(Cl)cc3F)c2c(=O)n1C [Example 189, (R)-5-(4-chloro-2-fluorophenyl)-2,3-dimethyl-7-(2-(1-methyl-1H-pyrazol-4-yl)morpholino)pyrido[4,3-d]pyrimidin-4(3H)-one]"
++++ (Emax>300),500 to 3000,"CCCn1c(C)nc2cc(N3CCO[C@H](C(F)F)C3)nc(-c3ccc(Cl)cc3F)c2c1=O [Example 191, (S)-5-(4-chloro-2-fluorophenyl)-7-(2-(difluoromethyl)morpholino)-2-methyl-3-propylpyrido[4,3-d]pyrimidin-4(3H)-one]"
++++ (Emax>300),500 to 3000,"CCCn1c(C)nc2cc(N3CCO[C@@H](CF)C3)nc(-c3ccc(Cl)cc3F)c2c1=O [Example 192, (R)-5-(4-chloro-2-fluorophenyl)-7-(2-(fluoromethyl)morpholino)-2-methyl-3-propylpyrido[4,3-d]pyrimidin-4(3H)-one]"
+++ (Emax>200 and ≤300),500 to 3000,"CCCn1c(C)nc2cc(N3CCO[C@H](CF)C3)nc(-c3ccc(Cl)cc3F)c2c1=O [Example 193, (S)-5-(4-chloro-2-fluorophenyl)-7-(2-(fluoromethyl)morpholino)-2-methyl-3-propylpyrido[4,3-d]pyrimidin-4(3H)-one]"
+++ (Emax>200 and ≤300),3000 to 100000,"Cc1nc2cc(N3CCO[C@H](C4CC4)C3)nc(-c3ccc(Cl)cc3F)c2c(=O)n1C [Example 194, (R)-5-(4-chloro-2-fluorophenyl)-7-(2-cyclopropylmorpholino)-2,3-dimethylpyrido[4,3-d]pyrimidin-4(3H)-one]"
++++ (Emax>300),50 to 500,"CCn1cc([C@@H]2CN(c3cc4nc(C)n(C)c(=O)c4c(-c4ccc(Cl)cc4F)n3)CCO2)cn1 [Example 197, (R)-5-(4-chloro-2-fluorophenyl)-7-(2-(1-ethyl-1H-pyrazol-4-yl)morpholino)-2,3-dimethylpyrido[4,3-d]pyrimidin-4(3H)-one]"
++++ (Emax>300),500 to 3000,"Cc1nc2cc(N3CCO[C@H](c4nccs4)C3)nc(-c3ccc(Cl)cc3F)c2c(=O)n1C [Example 198, (S)-5-(4-chloro-2-fluorophenyl)-2,3-dimethyl-7-(2-(thiazol-2-yl)morpholino)pyrido[4,3-d]pyrimidin-4(3H)-one]"
++++ (Emax>300),50 to 500,"Cc1nc([C@@H]2CN(c3cc4nc(C)n(C)c(=O)c4c(-c4ccc(Cl)cc4F)n3)CCO2)no1 [Example 200, (S)-5-(4-chloro-2-fluorophenyl)-2,3-dimethyl-7-(2-(5-methyl-1,2,4-oxadiazol-3-yl)morpholino)pyrido[4,3-d]pyrimidin-4(3H)-one]"
